From US8470800B2, “Method of reducing intraocular pressure in humans” (Inotek Pharmaceuticals Corporation, priority 2009, dated 2013)

What was measured:
[1] = biological target: human A1 adenosine receptor (Homo sapiens (Human), UniProt P30542); experiment: Inhibition of forskolin-stimulated adenylyl cyclase activity via A1 receptor; format: biochemical; conditions: membranes of CHO cells stably transfected with human A1 receptor
Experimental: (§1) The A1 and A3 receptor-mediated inhibition of forskolin-stimulated adenylyl cyclase activity was tested in membranes prepared from CHO cells stably transfected with the human A1 and A3 adenosine receptors. The A2a and A2b receptor-mediated stimulation of basal cyclase activity was tested in membranes prepared from CHO cells stably transfected with the human A2a and […] adenosine receptors
(§2) Adenylyl Cyclase Inhibition Via Human Adenosine A1 and A3 Receptors

[2] = Clinical study: single topical ocular dose, intraocular pressure in adults with OHT or POAG; format: in vivo, human; conditions: for IOP difference from the placebo response: 2 hours postdose
Excerpt: The clinical study described herein is a multi-center, randomized, double-blind, placebo-controlled, dose-escalation study of a single topical ocular application of the study drug (i.e., Compound A or placebo) to the one study eye of adults with OHT or POAG. The “study eye” was defined as the eye with the higher mean IOP, recorded between 7:00 and 8:00 AM on the day prior to dosing (Day 0).
The adult subjects were sequentially assigned to 1 of 7 treatment groups.
Masked-intraocular pressures were determined in duplicate with a Goldmann tonometer following traditional corneal anesthesia. […] Subsequent bilateral external eye examinations and masked-IOP determinations were performed at 9:00 AM, 10:00 AM, 12:00 noon, and 2:00 PM (each ±5 minutes), corresponding to 1, 2, 4, and 6 hours post study drug application. In addition in the 700 mcg cohort an IOP determination was performed at 6:00 PM (18:00), corresponding to 10 hours post study drug application.
The study drug was only administered to one eye per subject (the study eye). Dosages ranged from 2.5 micrograms to 350 micrograms per 50 microliter drop, per respective treatment group. A board-certified ophthalmologist (or comparably trained designee) administered the study drug. Randomized enrollment of subjects into each successive treatment groups was predicated upon the review and approval of the safety data from the completed treatment groups by the Safety Research Committee, consisting of three qualified physicians (i.e., an internist, cardiologist, and ophthalmologist).

[3] = biological target: T1, A3 adenosine receptor (Homo sapiens (Human), UniProt P0DMS8); experiment: Adenosine receptor binding selectivity A1 > A3; conditions: ratio of Ki values
Experimental: (§3) As used herein, the term “selective adenosine A1 agonist” means an A1 agonist that has a high affinity to the A1 receptor while simultaneously having a low affinity for the A2 and A3 adenosine receptors.
(§4) Membranes for radioligand binding experiments are prepared from fresh or frozen cells as described in Klotz et al., Naunyn-Schmiedeberg's Arch. […] The cell suspension is then homogenized in ice-cold hypotonic buffer (5 mM Tris/HCl, 2 mM EDTA, pH 7.4) and the homogenate is spun for 10 minutes (4° C.) at 1,000 g.
(§5) Nonspecific binding is determined in the presence of 100 μM R-PM and 1 mM theophylline, respectively. For details see Klotz et al., Naunyn-Schmiedeberg's Arch.

[4] = biological target: A2A adenosine receptor (Homo sapiens (Human), UniProt P29274); experiment: Adenosine receptor binding selectivity A1 > A2A; conditions: ratio of Ki values
Experimental: as §3, §4, §5

[5] = biological target: T1, A3 adenosine receptor; experiment: Inhibition of forskolin-stimulated adenylyl cyclase activity via A3 receptor; format: biochemical; conditions: membranes of CHO cells stably transfected with human A3 receptor
Experimental: as §1, §2

Sequence of A2A adenosine receptor (P29274 whole entry): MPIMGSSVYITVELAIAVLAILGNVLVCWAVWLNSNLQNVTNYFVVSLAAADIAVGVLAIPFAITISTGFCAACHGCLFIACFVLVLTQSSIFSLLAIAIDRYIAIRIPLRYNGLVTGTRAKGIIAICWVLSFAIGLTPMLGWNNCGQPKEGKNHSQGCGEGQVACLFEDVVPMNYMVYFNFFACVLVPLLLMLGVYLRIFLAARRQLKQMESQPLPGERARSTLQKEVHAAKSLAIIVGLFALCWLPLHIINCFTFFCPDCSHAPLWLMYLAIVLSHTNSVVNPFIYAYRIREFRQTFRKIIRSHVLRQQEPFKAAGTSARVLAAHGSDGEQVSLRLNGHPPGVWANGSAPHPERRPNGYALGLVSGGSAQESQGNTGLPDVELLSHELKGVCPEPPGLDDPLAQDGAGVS
T1 sequence (P0DMS8 whole entry): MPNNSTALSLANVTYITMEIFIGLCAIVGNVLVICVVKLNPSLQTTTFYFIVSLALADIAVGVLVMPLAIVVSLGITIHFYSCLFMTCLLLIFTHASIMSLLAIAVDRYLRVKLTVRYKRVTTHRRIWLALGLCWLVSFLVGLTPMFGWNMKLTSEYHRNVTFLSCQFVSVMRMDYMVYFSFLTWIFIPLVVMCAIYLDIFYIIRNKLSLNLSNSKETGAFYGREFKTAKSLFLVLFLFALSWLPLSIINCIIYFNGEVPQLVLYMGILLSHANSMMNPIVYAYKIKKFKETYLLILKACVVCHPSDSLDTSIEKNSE
Sequence of human A1 adenosine receptor (P30542 whole entry): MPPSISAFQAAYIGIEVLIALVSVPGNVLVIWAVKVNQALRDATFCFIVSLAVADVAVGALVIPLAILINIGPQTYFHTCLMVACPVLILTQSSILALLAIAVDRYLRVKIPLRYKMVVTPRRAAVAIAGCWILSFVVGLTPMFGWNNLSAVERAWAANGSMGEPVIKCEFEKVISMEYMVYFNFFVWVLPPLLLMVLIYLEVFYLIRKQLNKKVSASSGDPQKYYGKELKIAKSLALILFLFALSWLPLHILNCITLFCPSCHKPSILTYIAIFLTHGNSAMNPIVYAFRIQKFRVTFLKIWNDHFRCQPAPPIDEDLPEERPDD

Compound	EC50 [1]	A1 > A3 SELECTIVITY [KiA3(nm)/KiA1(nm)] [3]	A1 > A2A SELECTIVITY [KiA2(nm)/KiA1(nm)] [4]	EC50 [5]	other results
O=S(=O)([O-])OC[C@H]1O[C@@H](n2cnc3c(NC4CCCC4)ncnc32)[C@H](O)[C@@H]1O.[Na+] [Compound C, sodium ((2R,3S,4R,5R)-5-(6-(cyclopentylamino)-9H-purin-9-yl)-3,4-dihydroxytetrahydrofuran-2-yl)methyl sulfate]		251	2250		
O=[N+]([O-])OC[C@H]1O[C@@H](n2cnc3c(NC4CCOC4)ncnc32)[C@H](O)[C@@H]1O (stereo partly drawn) [Compound D, ((2R,3S,4R,5R)-3,4-dihydroxy-5-(6-(tetrahydrofuran-3-ylamino)-9H-purin-9-yl)tetrahydrofuran-2-yl)methyl nitrate]		202	>9434		
O=S(=O)([O-])OC[C@H]1O[C@@H](n2cnc3c(NC4CCCCC4)nc(Cl)nc32)[C@H](O)[C@@H]1O.[Na+] [Compound G, sodium ((2R,3S,4R,5R)-5-(2-chloro-6-(cyclohexylamino)-9H-purin-9-yl)-3,4-dihydroxytetrahydrofuran-2-yl)methyl sulfate]	19 nM	130	200	> 100000 nM	

Second part, led by results:

EC50 [1]	A1 > A3 SELECTIVITY [KiA3(nm)/KiA1(nm)] [3]	A1 > A2A SELECTIVITY [KiA2(nm)/KiA1(nm)] [4]	Compound	EC50 [5]	other results
17 nM			O=[N+]([O-])OC[C@H]1O[C@@H](n2cnc3c(NC4CCCC4)ncnc32)[C@H](O)[C@@H]1O [Compound A, ((2R,3S,4R,5R)-5-(6-(cyclopentylamino)-9H-purin-9-yl)-3,4-dihydroxytetrahydrofuran-2-yl)methyl nitrate]		IOP difference from the placebo response ([2]; 350 mcg treatment group): Statistically significant differences from the placebo response; duration of the decrease in IOP ([2]; 350 mcg treatment group, entire observation period): ~6 h; IOP difference from the placebo response ([2]; 700 mcg treatment group): Statistically significant differences from the placebo response; dose group with % of subjects achieving greatest IOP decrement (responder analysis) ([2]; across 7 dose groups): 350 µg; dose with largest mean and median decreases in IOP ([2]; across 7 dose groups 2.5-700 mcg): 350 µg; decrement in IOP from the Day 1 pre-dose baseline ([2]; single topical ocular dose 2.5-700 mcg, study eye, OHT or POAG): Dose-related decrement in IOP; responder analysis: subjects with categorical mean IOP decreases from baseline of ≧10%, ≧15% or ≧20% ([2]; throughout the observation period (~6 hrs)): showed a dose-response; time post-dose of largest difference in IOP between drug-treated and placebo-treated eyes ([2]; topical ocular doses, human subjects): approximately 2 hours
29 nM	1098	878	O=[N+]([O-])OC[C@H]1O[C@@H](n2cnc3c(NC4CCCCC4)ncnc32)[C@H](O)[C@@H]1O [Compound E, ((2R,3S,4R,5R)-5-(6-(cyclohexylamino)-9H-purin-9-yl)-3,4-dihydroxytetrahydrofuran-2-yl)methyl nitrate]	> 100000 nM	
	260	3945	O=[N+]([O-])OC[C@H]1O[C@@H](n2cnc3c(NC4CC5CCC4C5)ncnc32)[C@H](O)[C@@H]1O (stereo partly drawn) [Compound F, ((2R,3S,4R,5R)-5-(6-(bicycle-[2.2.1]-heptan-2-ylamino)-9H-purin-9-yl)-3,4-dihydroxytetrahydrofuran-2-yl)methyl nitrate]		
